Data: US8399491B2, “Derivatives of indole-2-carboxamides and of azaindole-2-carboxamides substituted with a silanyl group, preparation thereof and therapeutic use thereof” (Sanofi, priority 2008, dated 2013)

Tests used:
TRPV1 receptor = target: T1, TRPV1 receptor (Rattus norvegicus, UniProt O35433); assay: Inhibition of the current induced by capsaicin on rat DRGs (whole-cell patch-clamp); type: cell-based; settings: capsaicin response (1 microM), newborn rat DRG primary culture
T1 construct: The neurones of the DRG naturally express the TRPV1 receptor; endogenous in cells; host or cells: primary culture of newborn rat dorsal root ganglion (DRG) neurones
Procedure: Test for Inhibition of the Current Induced by Capsaicin on Rat DRGs
Primary Culture of Rat Dorsal Route Ganglion (DRG) Cells:
The neurones of the DRG naturally express the TRPV1 receptor.
Newborn rat DRG primary cultures are prepared from 1-day-old rat pups. Briefly, after dissection, the ganglia are trypsinized and the cells are mechanically dissociated by controlled trituration. The cells are resuspended in an Eagle's basal culture medium containing 10% of foetal calf serum, 25 mM KCl, 2 mM glutamine, 100 μg/ml gentamicin and 50 ng/ml of NGF, and then deposited onto laminin-coated glass coverslips (0.2×10^6 cells per coverslip) which are then placed in Corning 12-well dishes. […]
The measuring chambers (volume 800 μl) containing the cell preparation are placed on the platform of an inverted microscope (Olympus IMT2) equipped with Hoffman optics (Modulation Contrast, New York) and observed at the magnification of ×400. […] The overall currents (membrane potential fixed at −60 mV) are recorded with an Axopatch 1D amplifier (Axon Instruments, Foster city, Calif.), connected to a PC controlled by Pclamp8 software (Axon Instruments). The current traces are recorded on paper and simultaneously digitized (sampling frequency 15 to 25 Hz) and acquired on the hard drive of the PC. […] The results are expressed as % inhibition of the control capsaicin response.

T1 sequence (O35433 whole entry): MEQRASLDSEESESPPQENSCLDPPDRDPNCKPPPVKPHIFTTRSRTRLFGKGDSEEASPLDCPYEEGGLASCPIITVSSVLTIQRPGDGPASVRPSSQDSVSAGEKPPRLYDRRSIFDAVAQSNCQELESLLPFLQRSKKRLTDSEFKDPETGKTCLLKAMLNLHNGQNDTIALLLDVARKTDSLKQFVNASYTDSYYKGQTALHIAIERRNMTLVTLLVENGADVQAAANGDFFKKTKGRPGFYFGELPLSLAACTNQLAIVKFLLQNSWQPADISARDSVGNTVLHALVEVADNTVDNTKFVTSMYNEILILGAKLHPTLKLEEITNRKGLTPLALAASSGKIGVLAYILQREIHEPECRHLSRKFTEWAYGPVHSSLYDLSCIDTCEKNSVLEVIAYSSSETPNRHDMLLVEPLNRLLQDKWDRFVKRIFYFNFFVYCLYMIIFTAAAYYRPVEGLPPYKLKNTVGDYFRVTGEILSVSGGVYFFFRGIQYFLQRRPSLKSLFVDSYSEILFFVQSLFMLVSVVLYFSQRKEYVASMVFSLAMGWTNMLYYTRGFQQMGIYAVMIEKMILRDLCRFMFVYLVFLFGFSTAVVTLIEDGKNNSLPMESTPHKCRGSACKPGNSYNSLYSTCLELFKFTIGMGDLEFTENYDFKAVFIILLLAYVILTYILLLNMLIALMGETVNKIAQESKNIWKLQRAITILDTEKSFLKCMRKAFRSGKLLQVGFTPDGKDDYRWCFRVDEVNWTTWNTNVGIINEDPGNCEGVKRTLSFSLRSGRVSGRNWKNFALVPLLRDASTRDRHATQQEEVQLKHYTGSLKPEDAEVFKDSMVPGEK

| SMILES | inhibition at 0.001 µM (TRPV1 receptor; compound at 1 nM) | melting point | inhibition at 0.01 µM (TRPV1 receptor; compound at 10 nM) |
| --- | --- | --- | --- |
| C[Si](C)(C)c1ccc2cc(C(=O)Nc3ccc(N4CC(O)C4)nc3)n(Cc3cccc(F)c3)c2c1 [Compound 2, N-[6-(3-Hydroxyazetidin-1-yl)pyridin-3-yl]-6-trimethylsilyl-1-[(3-fluorophenyl)methyl]-1H-indole-2-carboxamide] | 84% |  |  |
| C[Si](C)(C)c1cccc2cc(C(=O)Nc3ccc(N4CC(O)C4)nc3)n(Cc3cccc(F)c3)c12 |  | 215 to 217 °C |  |
| C[Si](C)(c1ccccc1)c1ccc2c(c1)cc(C(=O)Nc1ccc(N3CCC3)nc1)n2Cc1cccc(F)c1 |  | 200 to 202 °C |  |
| CC[Si](C)(CC)c1ccc2c(c1)cc(C(=O)Nc1ccc(N3CCC3)nc1)n2Cc1cccc(F)c1 |  | 171 to 173 °C |  |
| C[Si](C)(c1ccc2c(c1)cc(C(=O)Nc1ccc(N3CCC3)nc1)n2Cc1cccc(F)c1)C1CCCCC1 |  | 202 to 203 °C |  |
| CC(C)(C)[Si](C)(C)c1ccc2c(c1)cc(C(=O)Nc1ccc(N3CCC3)nc1)n2Cc1cccc(F)c1 |  | 110 to 112 °C |  |
| C[Si](C)(c1ccc2c(c1)cc(C(=O)Nc1ccc(N3CCCC3)nc1)n2Cc1cccc(F)c1)C1CCCCC1 |  | 192 to 194 °C |  |
| CC[Si](C)(C)c1ccc2c(c1)cc(C(=O)Nc1ccc(N3CCC3)nc1)n2Cc1cccc(F)c1 |  | 188 to 189 °C |  |
| C[Si](C)(C)c1ccc2c(c1)cc(C(=O)Nc1ccc(N3CC(O)C3)nc1)n2Cc1cccc(F)c1 |  | 207 to 208 °C |  |
| C[Si](C)(C)c1cccc2cc(C(=O)Nc3ccc(N4CCC4)nc3)n(Cc3cccc(F)c3)c12 |  | 160 to 162 °C |  |
| C[Si](C)(C)c1ccc2c(c1)cc(C(=O)Nc1ccc(N3CCC3)nc1)n2Cc1cccc(F)c1 [Compound 3, N-[6-(Azetidin-1-yl)pyridin-3-yl]-5-trimethylsilyl-1-[(3-fluorophenyl)methyl]-1H-indole-2-carboxamide] |  | 212 to 213 °C | 95% |
| CC(C)[Si](C)(C)c1ccc2c(c1)cc(C(=O)Nc1ccc(N3CCC3)nc1)n2Cc1cccc(F)c1 |  | 179 to 180 °C |  |
| CC[Si](CC)(CC)c1ccc2c(c1)cc(C(=O)Nc1ccc(N3CCC3)nc1)n2Cc1cccc(F)c1 |  | 166 to 168 °C |  |
| O=C(Nc1ccc(N2CCC2)nc1)c1cc2cc([SiH2]C(c3ccccc3)c3ccccc3)ccc2n1Cc1cccc(F)c1 |  | 98 to 100 °C |  |
